Literature values in patent publication US6344218B1, “Skin deodorizing and santizing compositions” (The Procter & Gamble Company, priority 1998, dated 2002).
Structures can show the parent of a compound that is named as a salt.

SMILES | solubility in water
[H]/N=C(\N/C(=N/[H])NCCCCCCNC(=N)NC(=N)Nc1ccc(Cl)cc1)Nc1ccc(Cl)cc1 [diacetate salt, 1,1′-hexamethylene bis(5-(p-chlorophenyl)biguanide), reference compound] | about 1.8%
O=[N+]([O-])C(Br)(CO)CO [Bronopol, 2-bromo-2-nitropropane-1,3-diol] | about 25%
CC(C)(O)C(Cl)(Cl)Cl [chlorobutanol, 1,1,1-Trichloro-2-methylpropan-2-ol] | about 0.8%
ClC=CC[N+]12CN3CN(CN(C3)C1)C2.[Cl-] [Dowicil 200, 1-(3-Chlorallyl)-3,5,7-triaza-1-azoniaadamantane chloride] | freely soluble in water
OCc1ccccc1 [benzyl alcohol] | about 4%
[H]/N=C(\N/C(=N/[H])NCCCCCCNC(=N)NC(=N)Nc1ccc(Cl)cc1)Nc1ccc(Cl)cc1 [digluconate salt, 1,1′-hexamethylene bis(5-(p-chlorophenyl)biguanide), reference compound] | about 70%
[Na+].[O-][n+]1ccccc1[S-] [sodium pyrithione] | about 50%
OCCOc1ccccc1 [2-phenoxyethanol] | about 2.67%
OCCc1ccccc1 [2-phenylethanol] | about 2%
CC1(C)C(=O)N(CO)C(=O)N1CO [DMDM hydantoin, 1,3-bis(hydroxymethyl)-5,5-dimethyl-2,4-imidazolidinedione] | more than 50%
O=[N+]([O-])C1(Br)COCOC1 [Bronidox L, 5-bromo-5-nitro-1,3-dioxane] | about 0.46%
